The text below walks through data of US11377441B2, “Covalent inhibitors of KRAS” (Araxes Pharma LLC, priority 2017, dated 2022).

Each structure is given as a SMILES string.

In this assay the target is T1, KRAS G12C 1-169, his-tagged protein, GDP-loaded (Homo sapiens, UniProt P01116, G12C).
T1 construct: KRAS G12C 1-169, his-tagged protein, GDP-loaded
Nature of the assay: Biochemical assay: covalent modification of KRAS G12C measured by mass spectrometry (RapidFire/TOF or Q-Exactive). The class given is binding. The note with it: covalent binding to (modification of) KRAS G12C after a ten minute incubation period. Summed up:
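GDP-loaded KRAS G12C 1-169 (his-tagged) at 2 μM or 0.5 μM in 20 mM Hepes, 150 mM NaCl, 1 mM MgCl2, incubated with compound at 100, 30 or 10 μM at room temperature for 10 min, 30 min, 2 h or 24 h, then quenched with formic acid. Intact-protein LC-MS, deconvolved; percent modification from modified versus unmodified protein.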
On to `C=CC(=O)N1C[C@H](C)N(c2nc(OCCN3CC[C@@H](OC)C3)nc3c(F)c(-c4c(C)ccc5[nH]nc(N)c45)c(Cl)cc23)C[C@H]1C` [Compound 100, 1-((2R,5S)-4-(7-(3-amino-5-methyl-1H-indazol-4-yl)-6-chloro-8-fluoro-2-(2-((R)-3-methoxypyrrolidin-1-yl)ethoxy)quinazolin-4-yl)-2,5-dimethylpiperazin-1-yl)prop-2-en-1-one], for which the Binding % entry was “+++ (+++ indicates binding activity greater than 80%)”.

Take `C=CC(=O)N1C[C@H](C)N(c2nc(N3CC(N(C)C)C3)nc3c(F)c(-c4c(F)ccc5cnn(C6CC6)c45)c(Cl)cc23)C[C@H]1C` [Compound 200, 1-((2R,5S)-4-(6-chloro-7-(1-cyclopropyl-6-fluoro-1H-indazol-7-yl)-2-(3-(dimethylamino)azetidin-1-yl)-8-fluoroquinazolin-4-yl)-2,5-dimethylpiperazin-1-yl)prop-2-en-1-one]: the Binding % result is “+ (+ indicates binding activity greater than 0% and up to 50%)”.

For the molecule `C=CC(=O)N1C[C@H](C)N(c2nc(N3CC(N(C)C)C3)nc3c(F)c(-c4c(C)ccc5[nH]nc(N)c45)c(Cl)cc23)C[C@H]1C` [Compound 3, 1-((2R,5S)-4-(7-(3-amino-5-methyl-1H-indazol-4-yl)-6-chloro-2-(3-(dimethylamino)azetidin-1-yl)-8-fluoroquinazolin-4-yl)-2,5-dimethylpiperazin-1-yl)prop-2-en-1-one], the Binding % result is “+++ (+++ indicates binding activity greater than 80%)”.

On to `C=CC(=O)N1[C@H](C)CN(c2nc(N3CC(N(C)C)C3)nc3c(F)c(-c4c(C)ccc5cnn(C)c45)c(Cl)cc23)C[C@@H]1C` (atropisomer, axis not shown) [Compound 142, 1-((2S,6R)-4-((R)-6-chloro-7-(1,6-dimethyl-1H-indazol-7-yl)-2-(3-(dimethylamino)azetidin-1-yl)-8-fluoroquinazolin-4-yl)-2,6-dimethylpiperazin-1-yl)prop-2-en-1-one], for which the Binding % result was “+++ (+++ indicates binding activity greater than 80%)”.

As for `C=CC(=O)N1C[C@H](C)N(c2nc(N3CC(N(C)C)C3)nc3c(F)c(-c4c(C)ccc5ocnc45)c(Cl)cc23)C[C@H]1C` [Compound 125, 1-((2R,5S)-4-(6-chloro-2-(3-(dimethylamino)azetidin-1-yl)-8-fluoro-7-(5-methylbenzo[d]oxazol-4-yl)quinazolin-4-yl)-2,5-dimethylpiperazin-1-yl)prop-2-en-1-one], the Binding % entry was “++ (++ indicates binding activity from 50 to 80%)”.

Regarding `C=CC(=O)N1C[C@H](C)N(c2nc(OC[C@H]3CCCN3C)nc3c(F)c(-c4c(C)ccc5[nH]nc(C6CC6)c45)c(Cl)cc23)C[C@H]1C` [Compound 172, 1-((2R,5S)-4-(6-chloro-7-(3-cyclopropyl-5-methyl-1H-indazol-4-yl)-8-fluoro-2-(((R)-1-methylpyrroldiin-2-yl)methoxy)quinazolin-4-yl)-2,5-dimethylpiperazin-1-yl)prop-2-en-1-one], the Binding % result is recorded as “+++ (+++ indicates binding activity greater than 80%)”.

In the case of `C=CC(=O)N1CCN(c2nc(N3CC(N(C)C)C3)nc3c(F)c(-c4c(C)ccc5cnn(C)c45)c(Cl)cc23)CC1CC#N` (stereo not drawn) [Compound 269, 2-(1-acryloyl-4-(6-chloro-7-(1,6-dimethyl-1H-indazol-7-yl)-2-(3-(dimethylamino)azetidin-1-yl)-8-fluoroquinazolin-4-yl)piperazin-2-yl)acetonitrile], the Binding % entry is “+++ (+++ indicates binding activity greater than 80%)”.

In the case of `C=CC(=O)N1C[C@H](C)N(c2nc(NC(=O)CN(C)C)nc3c(F)c(-c4c(C)ccc5cnn(C)c45)c(Cl)cc23)C[C@H]1C` [Compound 260, N-(4-((2S,5R)-4-acryloyl-2,5-dimethylpiperazin-1-yl)-6-chloro-7-(1,6-dimethyl-1H-indazol-7-yl)-8-fluoroquinazolin-2-yl)-2-(dimethylamino)aceta-mide], the Binding % result is given as “+++ (+++ indicates binding activity greater than 80%)”.

As for `C=CC(=O)N1C[C@H](C)N(c2nc(N3CC(N(C)C)C3)nc3c(F)c(-c4c(C)ccc5cnn(C6CC6)c45)c(Cl)cc23)C[C@H]1C` (atropisomer, axis not shown) [Compound 149, 1-((2R,5S)-4-((S)-6-chloro-7-(1-cyclopropyl-6-methyl-1H-indazol-7-yl)-2-(3-(dimethylamino)azetidin-1-yl)-8-fluoroquinazolin-4-yl)-2,5-dimethylpiperazin-1-yl)prop-2-en-1-one], the Binding % result was “+ (+ indicates binding activity greater than 0% and up to 50%)”.

Turning to `C=CC(=O)N1C[C@H](C)N(c2nc(OCCN3CC(F)(F)C3)nc3c(F)c(-c4c(C)ccc5cnn(CC)c45)c(Cl)cc23)C[C@H]1C` [Compound 123, 1-((2R,5S)-4-(6-chloro-2-(2-(3,3-difluoroazetidin-1-yl)ethoxy)-7-(1-ethyl-6-methyl-1H-indazol-7-yl)-8-fluoroquinazolin-4-yl)-2,5-dimethylpiperazin-1-yl)prop-2-en-1-one], the Binding % entry is recorded as “+++ (+++ indicates binding activity greater than 80%)”.

Take `C=CC(=O)N1C[C@H](C)N(c2nc(N3CC(NC)C3)nc3c(F)c(-c4c(C)ccc5[nH]nc(C)c45)c(Cl)cc23)C[C@H]1C` (atropisomer, axis not shown) [Compound 220, 1-((2R,5S)-4-((R)-6-chloro-7-(3,5-dimethyl-1H-indazol-4-yl)-8-fluoro-2-(3-(methylamino)azetidin-1-yl)quinazolin-4-yl)-2,5-dimethylpiperazin-1-yl)prop-2-en-1-one]: the Binding % result is listed as “+++ (+++ indicates binding activity greater than 80%)”.

As for `C=CC(=O)N1C[C@H](C)N(c2nc(NCCC(=O)N(C)C)nc3c(F)c(-c4c(C)ccc5[nH]nc(N)c45)c(Cl)cc23)C[C@H]1C` [Compound 62, 3-(4-((2S,5R)-4-acryloyl-2,5-dimethylpiperazin-1-yl)-7-(3-amino-5-methyl-1H-indazol-4-yl)-6-chloro-8-fluoroquinazolin-2-ylamino)-N,N-dimethylpropanamide], the Binding % entry is “+++ (+++ indicates binding activity greater than 80%)”.

For the molecule `C=CC(=O)N1C[C@H](C)N(c2nc(OCCN3CCN(C)CC3)nc3c(F)c(-c4c(C)ccc5cnn(C)c45)c(Cl)cc23)C[C@H]1C` (atropisomer, axis not shown) [Compound 169, 1-((2R,5S)-4-((R)-6-chloro-7-(1,6-dimethyl-1H-indazol-7-yl)-8-fluoro-2-(2-(4-methylpiperazin-1-yl)ethoxy)quinazolin-4-yl)-2,5-dimethylpiperazin-1-yl)prop-2-en-1-one], the Binding % entry is “+++ (+++ indicates binding activity greater than 80%)”.

Take `C=CC(=O)N1C[C@H](C)N(c2nc(N3CC(N(C)C)C3)nc3c(F)c(-c4c(C)ccc5[nH]nc(C6CC6)c45)c(Cl)cc23)C[C@@H]1C` (atropisomer, axis not shown) [Compound 254, 1-((2S,5S)-4-((S)-6-chloro-7-(3-cyclopropyl-5-methyl-1H-indazol-4-yl)-2-(3-(dimethylamino)azetidin-1-yl)-8-fluoroquinazolin-4-yl)-2,5-dimethylpiperazin-1-yl)prop-2-en-1-one]: the Binding % result was “+ (+ indicates binding activity greater than 0% and up to 50%)”.

For the molecule `C=CC(=O)N1C[C@H](C)N(c2nc(N3CC(N(C)C)C3)nc3c(F)c(-c4c(C)ccc5[nH]nc(C6CC6)c45)c(Cl)cc23)C[C@H]1C` (atropisomer, axis not shown) [Compound 76, 1-((2R,5S)-4-((R)-6-chloro-7-(3-cyclopropyl-5-methyl-1H-indazol-4-yl)-2-(3-(dimethylamino)azetidin-1-yl)-8-fluoroquinazolin-4-yl)-2,5-dimethylpiperazin-1-yl)prop-2-en-1-one], the Binding % result is on record as “+++ (+++ indicates binding activity greater than 80%)”.

Take `C=CC(=O)N1C[C@H](C)N(c2nc(N3CC(N(C)C)C3)nc3c(F)c(-c4c(C)ccc5[nH]nnc45)c(Cl)cc23)C[C@H]1C` [Compound 94, 1-((2R,5S)-4-(6-chloro-2-(3-(dimethylamino)azetidin-1-yl)-8-fluoro-7-(5-methyl-1H-benzo[d][1,2,3]triazol-4-yl)quinazolin-4-yl)-2,5-dimethylpiperazin-1-yl)prop-2-en-1-one]: the Binding % result is given as “++ (++ indicates binding activity from 50 to 80%)”.

Regarding `C=CC(=O)N1C[C@H](C)N(c2nc(OC[C@@H]3CCN(C)C3)nc3c(F)c(-c4c(C)ccc5cnn(C)c45)c(Cl)cc23)C[C@H]1C` [Compound 174, 1-((2R,5S)-4-(6-chloro-7-(1,6-dimethyl-1H-indazol-7-yl)-8-fluoro-2-(((R)-1-methylpyrrolidin-3-yl)methoxy)quinazolin-4-yl)-2,5-dimethylpiperazin-1-yl)prop-2-en-1-one], the Binding % result is on record as “+++ (+++ indicates binding activity greater than 80%)”.

`C=CC(=O)N1C[C@H](C)N(c2nc(OCCN3CC(F)(F)C3)nc3c(F)c(-c4c(C)ccc5cnn(C)c45)c(Cl)cc23)C[C@H]1C` (atropisomer, axis not shown) [Compound 147, 1-((2R,5S)-4-((R)-6-chloro-2-(2-(3,3-difluoroazetidin-1-yl)ethoxy)-7-(1,6-dimethyl-1H-indazol-7-yl)-8-fluoroquinazolin-4-yl)-2,5-dimethylpiperazin-1-yl)prop-2-en-1-one]: the Binding % entry is “+++ (+++ indicates binding activity greater than 80%)”.
